According to article PMC6409085, “Three odorant-binding proteins are involved in the behavioral response of Sogatella furcifera to rice plant volatiles” (PeerJ, 2019):
Several values for one entry are separate records, joined by “and”; a condition that tells them apart may be missing. Equal values may be shown once.

What was measured:
SfurOBP1 = SfurOBP1 (Sogatella furcifera, UniProt V5T8N5); assay: biochemical; type: binding; conditions: for Fluorescence competitive binding assay, fluorescence intensity: OBP1, three replicate columns
Summary of the method: (§1)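 Protein 2.0 µM + 1-NPN 2.0 µM, 50 mM Tris-HCl pH 7.4; competitor odorants 2, 4 … 20 µM final; read 2 min post-addition, ex 337/em 390–490 nm; n=3. K1-NPN from 1-NPN titration/Scatchard; Ki from IC50 corrected for free 1-NPN.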

SfurOBP11 = SfurOBP11 (Sogatella furcifera, UniProt V5T6E3); assay: biochemical; type: binding
Summary of the method: as §1

SfurOBP2 = SfurOBP2 (Sogatella furcifera, UniProt V5T759); assay: biochemical; type: binding
Summary of the method: as §1

SfurOBP3 = SfurOBP3 (Sogatella furcifera, UniProt V5T818); assay: biochemical; type: binding; conditions: for Fluorescence competitive binding assay, fluorescence intensity: OBP3, three replicate columns
Summary of the method: as §1

S. furcifera adults = assay: Y-tube olfactometer behavioral trials; type: in vivo, Sogatella furcifera; conditions: odorant 50 µL/L vs hexane
Summary of the method: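 Single S. furcifera adults (2 days post-emergence, starved 0.5 h) chose between odorant (100 µL of 50 µL/L on filter paper) and hexane control in a glass Y-tube, charcoal-filtered humidified air 300 mL/min per arm, 25 ± 1 °C, 50% RH. Choice scored if insect passed half an arm and stayed >1 min within 10 min; 45 insects per compound, chi-squared test.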

SfurOBP1, sequence (V5T8N5 entry or part of it): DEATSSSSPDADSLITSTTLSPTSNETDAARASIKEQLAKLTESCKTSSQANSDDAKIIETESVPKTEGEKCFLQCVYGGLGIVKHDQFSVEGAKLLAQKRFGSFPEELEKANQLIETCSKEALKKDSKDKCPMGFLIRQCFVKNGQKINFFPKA
SfurOBP2, sequence (V5T759 entry or part of it): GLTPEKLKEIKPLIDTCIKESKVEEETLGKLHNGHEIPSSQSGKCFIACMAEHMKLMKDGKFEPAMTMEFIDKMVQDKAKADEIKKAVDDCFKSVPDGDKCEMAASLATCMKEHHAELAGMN
SfurOBP11, sequence (V5T6E3 entry or part of it): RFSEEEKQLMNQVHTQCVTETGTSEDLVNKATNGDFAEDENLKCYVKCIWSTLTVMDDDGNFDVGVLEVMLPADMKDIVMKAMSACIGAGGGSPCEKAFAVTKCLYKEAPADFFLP
SfurOBP3, sequence (V5T818 entry or part of it): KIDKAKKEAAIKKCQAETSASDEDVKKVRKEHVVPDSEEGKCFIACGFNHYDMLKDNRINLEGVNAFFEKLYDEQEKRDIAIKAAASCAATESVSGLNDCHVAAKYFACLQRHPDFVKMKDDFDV

Question: What does the source list for `CCCCCCCC` [n-octane]?
Answer: Fluorescence competitive binding assay, fluorescence intensity (SfurOBP1; ligand concentration 2 (μM)): 5925 and 7991 and 7456; Fluorescence competitive binding assay, fluorescence intensity (SfurOBP1; ligand concentration 4 (μM)): 8340 and 7163 and 7902; Fluorescence competitive binding assay, fluorescence intensity (SfurOBP1; ligand concentration 6 (μM)): 8616 and 7456 and 8995; Fluorescence competitive binding assay, fluorescence intensity (SfurOBP1; ligand concentration 8 (μM)): 8020 and 7176 and 8029; Fluorescence competitive binding assay, fluorescence intensity (SfurOBP1; ligand concentration 10 (μM)): 7070 and 8613 and 8224; Fluorescence competitive binding assay, fluorescence intensity (SfurOBP1; ligand concentration 12 (μM)): 6680 and 8217 and 6786; Fluorescence competitive binding assay, fluorescence intensity (SfurOBP1; ligand concentration 14 (μM)): 7048 and 6801 and 7552; Fluorescence competitive binding assay, fluorescence intensity (SfurOBP1; ligand concentration 16 (μM)): 6817 and 7163 and 7002; Fluorescence competitive binding assay, fluorescence intensity (SfurOBP1; ligand concentration 18 (μM)): 8094 and 8514 and 8878; Fluorescence competitive binding assay, fluorescence intensity (SfurOBP1; ligand concentration 20 (μM)): 7869 and 7702 and 8440; IC50 (SfurOBP1; SfurOBP1, protein and 1-NPN both 2.0 µM, competitor 2-20 µM, read-out: IC50): > 20 µM; IC50 (SfurOBP11; SfurOBP11, protein and 1-NPN both 2.0 µM, competitor 2-20 µM, read-out: IC50): > 20 µM; Fluorescence intensity, fluorescence competitive binding assay, OBP11 (SfurOBP11; ligand concentration 2, replicate 1): 29315; Fluorescence intensity, fluorescence competitive binding assay, OBP11 (SfurOBP11; ligand concentration 2, replicate 2): 29331; Fluorescence intensity, fluorescence competitive binding assay, OBP11 (SfurOBP11; ligand concentration 2, replicate 3): 31569; Fluorescence intensity, fluorescence competitive binding assay, OBP11 (SfurOBP11; ligand concentration 4, replicate 1): 28278; Fluorescence intensity, fluorescence competitive binding assay, OBP11 (SfurOBP11; ligand concentration 4, replicate 2): 30015; Fluorescence intensity, fluorescence competitive binding assay, OBP11 (SfurOBP11; ligand concentration 4, replicate 3): 31065; Fluorescence intensity, fluorescence competitive binding assay, OBP11 (SfurOBP11; ligand concentration 6, replicate 1): 29774; Fluorescence intensity, fluorescence competitive binding assay, OBP11 (SfurOBP11; ligand concentration 6, replicate 2): 29054; Fluorescence intensity, fluorescence competitive binding assay, OBP11 (SfurOBP11; ligand concentration 6, replicate 3): 29894; Fluorescence intensity, fluorescence competitive binding assay, OBP11 (SfurOBP11; ligand concentration 8, replicate 1): 27943; Fluorescence intensity, fluorescence competitive binding assay, OBP11 (SfurOBP11; ligand concentration 8, replicate 2): 28064; Fluorescence intensity, fluorescence competitive binding assay, OBP11 (SfurOBP11; ligand concentration 8, replicate 3): 27821; Fluorescence intensity, fluorescence competitive binding assay, OBP11 (SfurOBP11; ligand concentration 10, replicate 1): 27525; Fluorescence intensity, fluorescence competitive binding assay, OBP11 (SfurOBP11; ligand concentration 10, replicate 2): 26078; Fluorescence intensity, fluorescence competitive binding assay, OBP11 (SfurOBP11; ligand concentration 10, replicate 3): 27163; Fluorescence intensity, fluorescence competitive binding assay, OBP11 (SfurOBP11; ligand concentration 12, replicate 1): 24273; Fluorescence intensity, fluorescence competitive binding assay, OBP11 (SfurOBP11; ligand concentration 12, replicate 2): 26556; Fluorescence intensity, fluorescence competitive binding assay, OBP11 (SfurOBP11; ligand concentration 12, replicate 3): 26721; Fluorescence intensity, fluorescence competitive binding assay, OBP11 (SfurOBP11; ligand concentration 14, replicate 1): 22920; Fluorescence intensity, fluorescence competitive binding assay, OBP11 (SfurOBP11; ligand concentration 14, replicate 2): 23793; Fluorescence intensity, fluorescence competitive binding assay, OBP11 (SfurOBP11; ligand concentration 14, replicate 3): 23357; Fluorescence intensity, fluorescence competitive binding assay, OBP11 (SfurOBP11; ligand concentration 16, replicate 1): 19613; Fluorescence intensity, fluorescence competitive binding assay, OBP11 (SfurOBP11; ligand concentration 16, replicate 2): 20535; Fluorescence intensity, fluorescence competitive binding assay, OBP11 (SfurOBP11; ligand concentration 16, replicate 3): 20285; Fluorescence intensity, fluorescence competitive binding assay, OBP11 (SfurOBP11; ligand concentration 18, replicate 1): 26966; Fluorescence intensity, fluorescence competitive binding assay, OBP11 (SfurOBP11; ligand concentration 18, replicate 2): 26281; Fluorescence intensity, fluorescence competitive binding assay, OBP11 (SfurOBP11; ligand concentration 18, replicate 3): 26291; Fluorescence intensity, fluorescence competitive binding assay, OBP11 (SfurOBP11; ligand concentration 20, replicate 1): 26611; Fluorescence intensity, fluorescence competitive binding assay, OBP11 (SfurOBP11; ligand concentration 20, replicate 2): 26798; Fluorescence intensity, fluorescence competitive binding assay, OBP11 (SfurOBP11; ligand concentration 20, replicate 3): 25454; IC50 (SfurOBP2; SfurOBP2, protein and 1-NPN both 2.0 µM, competitor 2-20 µM, read-out: IC50): 19.9 µM; Fluorescence competitive binding assay, OBP2 (raw fluorescence reading) (SfurOBP2; ligand concentration 2 (unit not given), replicate column 1 of 3): 18817; Fluorescence competitive binding assay, OBP2 (raw fluorescence reading) (SfurOBP2; ligand concentration 2 (unit not given), replicate column 2 of 3): 16925; Fluorescence competitive binding assay, OBP2 (raw fluorescence reading) (SfurOBP2; ligand concentration 2 (unit not given), replicate column 3 of 3): 16813; Fluorescence competitive binding assay, OBP2 (raw fluorescence reading) (SfurOBP2; ligand concentration 4 (unit not given), replicate column 1 of 3): 17604; Fluorescence competitive binding assay, OBP2 (raw fluorescence reading) (SfurOBP2; ligand concentration 4 (unit not given), replicate column 2 of 3): 17269; Fluorescence competitive binding assay, OBP2 (raw fluorescence reading) (SfurOBP2; ligand concentration 4 (unit not given), replicate column 3 of 3): 15635; Fluorescence competitive binding assay, OBP2 (raw fluorescence reading) (SfurOBP2; ligand concentration 6 (unit not given), replicate column 1 of 3): 16307; Fluorescence competitive binding assay, OBP2 (raw fluorescence reading) (SfurOBP2; ligand concentration 6 (unit not given), replicate column 2 of 3): 16391; Fluorescence competitive binding assay, OBP2 (raw fluorescence reading) (SfurOBP2; ligand concentration 6 (unit not given), replicate column 3 of 3): 15566; Fluorescence competitive binding assay, OBP2 (raw fluorescence reading) (SfurOBP2; ligand concentration 8 (unit not given), replicate column 1 of 3): 15494; Fluorescence competitive binding assay, OBP2 (raw fluorescence reading) (SfurOBP2; ligand concentration 8 (unit not given), replicate column 2 of 3): 15122; Fluorescence competitive binding assay, OBP2 (raw fluorescence reading) (SfurOBP2; ligand concentration 8 (unit not given), replicate column 3 of 3): 16014; Fluorescence competitive binding assay, OBP2 (raw fluorescence reading) (SfurOBP2; ligand concentration 10 (unit not given), replicate column 1 of 3): 15063; Fluorescence competitive binding assay, OBP2 (raw fluorescence reading) (SfurOBP2; ligand concentration 10 (unit not given), replicate column 2 of 3): 14978; Fluorescence competitive binding assay, OBP2 (raw fluorescence reading) (SfurOBP2; ligand concentration 10 (unit not given), replicate column 3 of 3): 15010; Fluorescence competitive binding assay, OBP2 (raw fluorescence reading) (SfurOBP2; ligand concentration 12 (unit not given), replicate column 1 of 3): 12606; Fluorescence competitive binding assay, OBP2 (raw fluorescence reading) (SfurOBP2; ligand concentration 12 (unit not given), replicate column 2 of 3): 12327; Fluorescence competitive binding assay, OBP2 (raw fluorescence reading) (SfurOBP2; ligand concentration 12 (unit not given), replicate column 3 of 3): 12885; Fluorescence competitive binding assay, OBP2 (raw fluorescence reading) (SfurOBP2; ligand concentration 14 (unit not given), replicate column 1 of 3): 12907; Fluorescence competitive binding assay, OBP2 (raw fluorescence reading) (SfurOBP2; ligand concentration 14 (unit not given), replicate column 2 of 3): 11889; Fluorescence competitive binding assay, OBP2 (raw fluorescence reading) (SfurOBP2; ligand concentration 14 (unit not given), replicate column 3 of 3): 12746; Fluorescence competitive binding assay, OBP2 (raw fluorescence reading) (SfurOBP2; ligand concentration 16 (unit not given), replicate column 1 of 3): 11757; Fluorescence competitive binding assay, OBP2 (raw fluorescence reading) (SfurOBP2; ligand concentration 16 (unit not given), replicate column 2 of 3): 11955; Fluorescence competitive binding assay, OBP2 (raw fluorescence reading) (SfurOBP2; ligand concentration 16 (unit not given), replicate column 3 of 3): 11106; Fluorescence competitive binding assay, OBP2 (raw fluorescence reading) (SfurOBP2; ligand concentration 18 (unit not given), replicate column 1 of 3): 11096; Fluorescence competitive binding assay, OBP2 (raw fluorescence reading) (SfurOBP2; ligand concentration 18 (unit not given), replicate column 2 of 3): 11451; Fluorescence competitive binding assay, OBP2 (raw fluorescence reading) (SfurOBP2; ligand concentration 18 (unit not given), replicate column 3 of 3): 11415; Fluorescence competitive binding assay, OBP2 (raw fluorescence reading) (SfurOBP2; ligand concentration 20 (unit not given), replicate column 1 of 3): 12132; Fluorescence competitive binding assay, OBP2 (raw fluorescence reading) (SfurOBP2; ligand concentration 20 (unit not given), replicate column 2 of 3): 10679; Fluorescence competitive binding assay, OBP2 (raw fluorescence reading) (SfurOBP2; ligand concentration 20 (unit not given), replicate column 3 of 3): 10932; Fluorescence competitive binding assay, fluorescence intensity (SfurOBP3; ligand concentration 2): 68170 and 67677 and 64610; Fluorescence competitive binding assay, fluorescence intensity (SfurOBP3; ligand concentration 4): 67293 and 62720 and 65655; Fluorescence competitive binding assay, fluorescence intensity (SfurOBP3; ligand concentration 6): 76553 and 64631 and 57162; Fluorescence competitive binding assay, fluorescence intensity (SfurOBP3; ligand concentration 8): 71829 and 61798 and 56284; Fluorescence competitive binding assay, fluorescence intensity (SfurOBP3; ligand concentration 10): 59554 and 55292 and 53530; Fluorescence competitive binding assay, fluorescence intensity (SfurOBP3; ligand concentration 12): 55099 and 48687 and 52349; Fluorescence competitive binding assay, fluorescence intensity (SfurOBP3; ligand concentration 14): 54529 and 46904 and 51749; Fluorescence competitive binding assay, fluorescence intensity (SfurOBP3; ligand concentration 16): 48833 and 47113 and 45049; Fluorescence competitive binding assay, fluorescence intensity (SfurOBP3; ligand concentration 18): 45841 and 47813 and 46502; Fluorescence competitive binding assay, fluorescence intensity (SfurOBP3; ligand concentration 20): 46899 and 47179 and 42858; IC50 (SfurOBP3; SfurOBP3, protein and 1-NPN both 2.0 µM, competitor 2-20 µM, read-out: IC50): > 20 µM; behavioral response of S. furcifera (in words) (S. furcifera adults): significantly repelled; number of insects choosing hexane arm (S. furcifera adults; adults): 19; number of insects choosing volatilies arm (S. furcifera adults; adults): 10; number of insects failed (no choice) (S. furcifera adults; adults): 11
